Measured values as given in PubChem BioAssay AID1963844 (Molecular Pharmacology Branch, DTP, NCI, 2024).

System: 422866-222-R5-J1-PDC complex spheroid viability
Experiment: Anticancer human tumor 422866-222-R5-J1-PDC patient-derived pancreatic adenocarcinoma cell line growth inhibition [POLQ]
Conditions: for IC50: curve of first compound; for viability, T/C: stronger effect = lower value
Method in brief: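 PDC + HUVEC + MSC complex spheroids; POLQ inhibitors ± partner drugs; top conc. at/near clinical Cmax, else 10 microM (SN-38 1 microM), half-log dilutions; 37 degrees C, 5% CO2.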
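Note: spheroids exposed to compounds for one week before readout.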
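Throughout, for viability, T/C: percent of DMSO vehicle wells luminescence so 100% = untreated viability.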

## COc1ccc([C@@H](O)c2cc(-c3ncnc4cc(N5CCOCC5)ccc34)c(F)cc2Cl)nn1 + Nc1ccc(C#CCN(C(=O)Cc2ncc(C(F)(F)F)cc2C(F)(F)F)c2ccc(F)cc2)nn1
Second compound 0.0316 µM
  IC50: 1510 nM
Second compound 0.1 µM
  IC50: 2570 nM
Second compound 0.316 µM
  IC50: 2740 nM
Second compound 1 µM
  IC50: 1930 nM
Second compound 3.16 µM
  IC50: 1280 nM
Second compound 10 µM
  IC50: 1590 nM
Second compound 0.0316 µM, first compound 0.0316 µM
  viability, T/C: 81.2%
Second compound 0.0316 µM, first compound 0.1 µM
  viability, T/C: 89.7%
Second compound 0.0316 µM, first compound 0.316 µM
  viability, T/C: 70.9%
Second compound 0.0316 µM, first compound 1 µM
  viability, T/C: 55.3%
Second compound 0.0316 µM, first compound 3.16 µM
  viability, T/C: 42.4%
Second compound 0.0316 µM, first compound 10 µM
  viability, T/C: 34.8%
Second compound 0.1 µM, first compound 0.0316 µM
  viability, T/C: 104%
Second compound 0.1 µM, first compound 0.1 µM
  viability, T/C: 81.8%
Second compound 0.1 µM, first compound 0.316 µM
  viability, T/C: 75.1%
Second compound 0.1 µM, first compound 1 µM
  viability, T/C: 59.8%
Second compound 0.1 µM, first compound 3.16 µM
  viability, T/C: 46.2%
Second compound 0.1 µM, first compound 10 µM
  viability, T/C: 39.2%
Second compound 0.316 µM, first compound 0.0316 µM
  viability, T/C: 110%
Second compound 0.316 µM, first compound 0.1 µM
  viability, T/C: 88.5%
Second compound 0.316 µM, first compound 0.316 µM
  viability, T/C: 73.1%
Second compound 0.316 µM, first compound 1 µM
  viability, T/C: 70.6%
Second compound 0.316 µM, first compound 3.16 µM
  viability, T/C: 46.2%
Second compound 0.316 µM, first compound 10 µM
  viability, T/C: 33.1%
Second compound 1 µM, first compound 0.0316 µM
  viability, T/C: 94.2%
Second compound 1 µM, first compound 0.1 µM
  viability, T/C: 87.4%
Second compound 1 µM, first compound 0.316 µM
  viability, T/C: 79.8%
Second compound 1 µM, first compound 1 µM
  viability, T/C: 62.6%
Second compound 1 µM, first compound 3.16 µM
  viability, T/C: 40.2%
Second compound 1 µM, first compound 10 µM
  viability, T/C: 29.4%
Second compound 3.16 µM, first compound 0.0316 µM
  viability, T/C: 95.9%
Second compound 3.16 µM, first compound 0.1 µM
  viability, T/C: 89.9%
Second compound 3.16 µM, first compound 0.316 µM
  viability, T/C: 72.9%
Second compound 3.16 µM, first compound 1 µM
  viability, T/C: 49.1%
Second compound 3.16 µM, first compound 3.16 µM
  viability, T/C: 47.6%
Second compound 3.16 µM, first compound 10 µM
  viability, T/C: 34.6%
Second compound 10 µM, first compound 0.0316 µM
  viability, T/C: 110%
Second compound 10 µM, first compound 0.1 µM
  viability, T/C: 100%
Second compound 10 µM, first compound 0.316 µM
  viability, T/C: 82.5%
Second compound 10 µM, first compound 1 µM
  viability, T/C: 60.3%
Second compound 10 µM, first compound 3.16 µM
  viability, T/C: 35.1%
Second compound 10 µM, first compound 10 µM
  viability, T/C: 31.4%
